Common to all, as to format: biochemical
The subject of assay [1] is serotonine (5-HT) reuptake in synaptosomes. The assay is described as follows: 5-HT reuptake inhibition in synaptosomes. The following applies: 3H-5-HT, read-out: 5-HT-uptake IC50. From the text:
(§1) Compounds of the invention may be tested for their ability to inhibit reuptake of the monoamines dopamine, noradrenaline and serotonin in synaptosomes e.g. such as described in WO 97/30997 (NeuroSearch A/S) or WO 97/16451 (NeuroSearch A/S). The compounds of the invention may also be tested for their antinociceptive activity e.g. such as described below: Background: formalin injection into the rat hindpaw initiates […] spontaneous nociceptive behaviours consisting of either flinching, and licking and/or biting of the injected paw. The first phase occurs as a direct chemical stimulation of nociceptors, and is followed by a period of relative quiescence called interphase that can be attributed to activation of noxious inhibitory control pathways; primarily 5-HT and NA pathways originating from brainstem nuclei. The second phase occurs as a result of increased primary afferent afferent drive with subsequent sensitization of nociceptive spinal neurones (Coderre et al., 1993). Animals: adult male Sprague-Dawley rats (Harlan Scandinavia, Alleroed, Denmark). The experiments was performed according to the Ethical Guidelines of the International Association for the Study of Pain (Zimmermann, 1983) and the Danish Committee for Experiments on Animals. […] MED and ED50 values were calculated where possible. Data (mean+/−SEM) were analyzed using one way ANOVA followed by Bonferonni's t test. […]

Assay [2] concerns noradrenaline (NA) reuptake in synaptosomes. The assay can be described thus: NA reuptake inhibition in synaptosomes. The following applies: 3H-NA, read-out: NA-uptake IC50.
From the text: as §1

For assay [3], the system named is dopamine (DA) reuptake in synaptosomes. The assay can be described thus: DA reuptake inhibition in synaptosomes. The following applies: 3H-DA, read-out: DA-uptake IC50.
From the text: as §1

Counter-ions that a name gives are not always drawn.

In general, IC50 refers to the concentration needed to halve the response being measured. In the case of `CCc1cc2ccc(O[C@@H]3C[C@H]4CC[C@@H](C3)N4)cc2oc1=O` [Compound 1.1, exo-7-[(8-Aza-bicyclo[3.2.1]oct-3-yl)oxy]-3-ethyl-chromen-2-one hydrochloride], the IC50 was 7.8 nM in assay [1], 47 nM in assay [2] and 500 nM in assay [3].

For the origin of these results see patent publication US20120004257A1, “NOVEL COMPOUNDS” (priority 2010, published 2012).
